Measured values taken from US20060073504A1, “Treatment of pain by inhibition of caspase signaling” (The Regents of the University of California, priority 2004, published 2006).
“Also recorded” adds a separate entry of the source. Counter-ions that a name gives are not always drawn. Like-named read-outs stand apart in the source and are kept apart here. * marks the point of attachment. Cbz = O=C(OCc1ccccc1)*; CH2F = FC*

Assays:
[1] = tested on: mechanical hyperalgesia induced by 2′,3′-dideoxycytidine (ddC); assay: ddC-induced mechanical hyperalgesia, paw-withdrawal threshold (Ugo Basile Analgesymeter); assay type: in vivo, rat; settings: inhibitor 5 μg i.d. hind paw, day 5 after ddC 50 mg/kg i.v., read 30 min after inhibitor, p<0.05
Procedure: (§1) Experiments were performed on 220-260-g male Sprague-Dawley rats (Charles River, Fremont, Calif., USA). Rats were housed in groups of 2 under a 12-h light-dark cycle. Food and water were available ad libitum. Experiments were carried out in accordance with NIH regulations for the care and use of animals in research, and under approval of the Institutional Animal Care and Use Committee of the University of California, San Francisco.
(§2) The nociceptive mechanical flexion reflex was quantified with an Ugo Basile Analgesymeter® (Stoelting, Chicago, Ill.), which applies a linearly increasing mechanical force to the dorsum of the rat's hind paw. Mechanical paw-withdrawal thresholds were determined in control (saline treated) and test agent treated rats. Four readings were taken at 5-min intervals and the mean of the last three readings were used to define the baseline paw-withdrawal threshold (Aley and Levine, 1999; Aley et al., 2001). The time at which the readings were taken was based on the time course of each test agent (described in results).
(§3) Algesic agents employed in this study were: vincristine sulfate (VCR), 2′,3′-dideoxycytidine (ddC), streptozotocin sulfate (STZ), tumor necrosis factor-α (TNFα) prostaglandin E2 (PGE2), epinephrine (Epi) (Sigma, St. Louis, Mo.) and N-Acetyl Sphingosine (C2-Ceramide obtained from Upstate USA, Inc, Lake Placid, N.Y.). Doses of the algesic agents were, VCR (200 μg/kg), ddC (50 mg/kg), STZ (50 mg/kg), PGE2 (100 ng/paw) and Epi (100 ng/paw). A single i.v. injection of VCR (200 μg/kg) produced significant mechanical hyperalgesia (>30 % reduction in paw-withdrawal threshold). This effect reached maximum on day 5 following the drug administration and was persistent for more then 15 days (Joseph, 2003 #5). STZ (50 mg/kg, i.v.×1), induced diabetes in rats, as indicated by with a blood glucose level >300 mg/dL, and a nociceptive threshold reduction (>30%). This effect reached maximum on day 3 following administration of the neuropathy inducing drug and was persistent for over 15 days (Joseph, 2003 #4).
(§4) TNFα, C2-Ceramide, PGE2, Epi, and all the inhibitors (see Table I) were administered intradermally (i.d.) on the dorsal surface of the hind paw in a volume of 2.5-5.0 μl, via a 30-gauge hypodermic needle. In co-injection experiments, agents were separated by very small air pockets, in one syringe, so that they could be administered with a single cutaneous needle penetration. As a control, all inhibitors were studied for independent effects on baseline nociceptive threshold. Inhibitors were either co-injected (with TNFα, C2-Ceramide, PGE2, and Epi) or administered on day five following the administration of VCR, ddC and STZ. Drugs were either dissolved in saline (VCR, ddC, STZ, TNF-α, PGE2, Epi) or in 10% DMSO (C2-Ceramide and inhibitors).
(§5) Group data are presented as % reduction in nociceptive threshold (mean+/±SEM) and comparisons between groups performed using Student's t-test (paired or unpaired, as appropriate). A probability of p<0.05 was considered statistically significant.
FIG. 1 depicts the effect of inhibitors of caspases administered in the hind paw of the rat, on mechanical hyperalgesia induced by the AIDS therapy drug 2′,3′-dideoxycytidine (ddC). The effect of inhibitors of caspase 1 (BACMK), 2 (Z-VDAD-FMK), 3 (Ac-DMQD-CHO), 8 (IETD-CHO), 9 (Z-LEHD-FMK.TFA), the non-selective broad-spectrum caspase inhibitor (NS) Z-VAD-FMK and the negative control for the non-selective broad-spectrum caspase inhibitor Z-FA-FMK [NS (Con)] on the nociceptive paw-withdrawal thresholds of rats were evaluated. Paw-withdrawal thresholds were measured on the 5th day after injection of ddC and 30 min after the administration of inhibitors. N=8/group, *=p<0.05, with respect to mechanical nociceptive threshold prior to injection of the inhibitor.

[2] = tested on: mechanical hyperalgesia induced by vincristine (VCR); assay: Vincristine-induced mechanical hyperalgesia, paw-withdrawal threshold; assay type: in vivo, rat; settings: inhibitor 5 μg i.d. hind paw, day 5 after VCR 200 μg/kg i.v., read 30 min after inhibitor, p<0.05
Procedure: as §1, §2, §3, §4, §5
FIG. 2 depicts the effect of inhibitors of caspases, administered in the hind paw of the rat, on mechanical hyperalgesia induced by the cancer chemotherapy drug Vincristine (VCR). The effect of inhibitors of caspase 1, 2, 3, 8, 9, the non-selective broad-spectrum caspase inhibitor (NS) and the negative control for the non-selective broad-spectrum caspase inhibitor [NS (Con)] on the nociceptive paw-withdrawal thresholds were evaluated. Paw-withdrawal thresholds were measured on the 5th day after injection of VCR and 30 min after the administration of the inhibitors. N=8/group, *=p<0.05, with respect to the value prior to injection of the inhibitor.

[3] = tested on: mechanical nociceptive threshold; assay: Effect of algesic agents on mechanical nociceptive (paw-withdrawal) threshold; assay type: in vivo, rat; settings: for effect on mechanical nociceptive threshold, dose response: intradermal injection, TNFα 1 ng-1 μg, C2-ceramide 1 μg-20 μg; for reduction in nociceptive threshold: 100 ng/paw i.d.
Procedure: as §1, §2
(§6) Algesic agents employed in this study were: vincristine sulfate (VCR), 2′,3′-dideoxycytidine (ddC), streptozotocin sulfate (STZ), tumor necrosis factor-α (TNFα) prostaglandin E2 (PGE2), epinephrine (Epi) (Sigma, St. Louis, Mo.) and N-Acetyl Sphingosine (C2-Ceramide obtained from Upstate USA, Inc, Lake Placid, N.Y.). Doses of the algesic agents were, VCR (200 μg/kg), ddC (50 mg/kg), STZ (50 mg/kg), PGE2 (100 ng/paw) and Epi (100 ng/paw).
(§7) Inhibitors of caspases and neutral sphingomyelinase are described in Table I, which is repeated for convenience. The doses of TNFα (100 ng) and C2-Ceramide (10 μg) were based on dose response experiments performed as part of this study. VCR, STZ, and ddC were administered intravenously (i.v.) in a volume of 1 ml/kg, followed by 0.5 ml saline. Control rats received equal volume of saline.
as §4
FIG. 3 depicts: A. Dose response (1 ng-1 μg) curve for the effect of TNF-α on mechanical nociceptive threshold, and B. Onset and time course of mechanical hyperalgesia induced by 100 ng of TNF-α. N=6/group.
FIG. 5 depicts the dose response (1-20 μg) curve for the effect of ceramide on the mechanical nociceptive threshold. N=6/group.

[4] = tested on: mechanical hyperalgesia induced by TNF-α; assay: TNFα-induced mechanical hyperalgesia, inhibitors co-injected; assay type: in vivo, rat; settings: read at 30 min
Procedure: as §1, §2
as §7, with “of saline. […]” for “of saline.”
FIG. 4 depicts the effect of inhibitors of caspases and sphingomyelinase on mechanical hyperalgesia induced by tumor necrosis factor alpha (TNF-α). The effect of inhibitors of caspase 1, 2, 3, 8, 9, the non-selective broad-spectrum caspase inhibitor (NS), the negative control for the non-selective broad-spectrum caspase inhibitor [NS (Con)], and the neutral sphingomyelinase inhibitor (GW4869) on the nociceptive paw-withdrawal thresholds of rats was evaluated. The inhibitors were co-injected with TNF-α and the paw-withdrawal thresholds measured 30 min after the drug administration. […]

[5] = STZ 50 mg/kg i.v. ×1; cited from earlier work
[6] = tested on: mechanical nociceptive threshold; settings: cited from earlier work
[7] = tested on: mechanical hyperalgesia induced by ceramide; assay: C2-ceramide-induced mechanical hyperalgesia, inhibitors co-injected; assay type: in vivo, rat; settings: inhibitor 5 μg co-injected i.d. with C2-ceramide 10 μg, read at 1 hr; p<0.05
Procedure: as §1, §2
Inhibitors of caspases and neutral sphingomyelinase are described in Table I, which is repeated for convenience. […]
FIG. 6 depicts the effect of inhibitors of caspases on mechanical hyperalgesia induced by ceramide. […] The inhibitors were co-injected with ceramide and paw-withdrawal thresholds measured 1 hr after the drug administration. […]

[8] = tested on: mechanical nociceptive threshold of normal/control rats; assay: Independent effect of inhibitors on baseline mechanical nociceptive threshold in control rats; assay type: in vivo, rat; settings: i.d. hind paw, data not shown
Procedure: as §1, §2
TNFα, C2-Ceramide, PGE2, Epi, and all the inhibitors (see Table I) were administered intradermally (i.d.) on the dorsal surface of the hind paw in a volume of 2.5-5.0 μl, via a 30-gauge hypodermic needle. […]

[9] = tested on: STZ-induced mechanical hyperalgesia; assay: STZ (diabetes)-induced mechanical hyperalgesia, paw-withdrawal threshold; assay type: in vivo, rat; settings: single test dose 5 μg i.d. hind paw, rats treated with STZ 50 mg/kg i.v.
Procedure: as §1, §2
as §6, with “Doses of the algesic agents were, VCR (200 μg/kg), ddC (50 mg/kg), STZ (50 mg/kg), PGE2 (100 ng/paw) and Epi (100 ng/paw).” left out

[10] = tested on: prostaglandin E2 (PGE2)-induced hyperalgesia; assay: PGE2-induced mechanical hyperalgesia, inhibitor co-injected; assay type: in vivo, rat; settings: co-injected with PGE2 100 ng/paw, read at 30 min
Procedure: as §1
as §2, with “results). […]” for “results).”
(§8) FIG. 7 depicts the effect of the non-selective caspase inhibitor on prostaglandin E2 (PGE2), epinephrine (Epi)-induced hyperalgesia. The caspase inhibitor was co-injected with PGE2 and epinephrine and the paw-withdrawal thresholds measured 30 min after the drug administration. […]

[11] = tested on: epinephrine (Epi)-induced hyperalgesia; assay: Epinephrine-induced mechanical hyperalgesia, inhibitor co-injected; assay type: in vivo, rat; settings: co-injected with Epi 100 ng/paw, read at 30 min
Procedure: as §1
as §2, with “results). […]” for “results).”
as §8

[12] = single i.v. injection: VCR 200 μg/kg, STZ 50 mg/kg
[13] = listed as inhibitor of caspase 3
[14] = inhibitor 5 μg co-injected i.d. with TNFα 100 ng, p<0.05

## CC(C)(C)OC(=O)N[C@@H](CC(=O)OCc1ccccc1)C(=O)CCl [BACMK, Boc-Asp(Obzl)-CMK]
[1]
  effect on ddC-induced mechanical hyperalgesia: significantly attenuated hyperalgesia
[2]
  effect on vincristine-induced mechanical hyperalgesia: significantly attenuated hyperalgesia

## CCCCCCCCCCCCC/C=C/[C@@H](O)[C@H](CO)NC(C)=O [C2-ceramide, N-Acetyl Sphingosine]
[3]
  effect on mechanical nociceptive threshold, dose response: dose-dependent hyperalgesia

## CNC[C@H](O)c1ccc(O)c(O)c1 [Epi, epinephrine]
[3]
  reduction in nociceptive threshold: significant reduction in nociceptive threshold

## O=C(/C=C/c1ccc(/C=C/C(=O)Nc2ccc(C3=NCCN3)cc2)cc1)Nc1ccc(C2=NCCN2)cc1 [GW4869]
[4]; sphingomyelinase inhibitor 1 μg co-injected i.d. with TNFα 100 ng
  effect on TNFα-induced hyperalgesia: markedly attenuated

## CCCCC[C@H](O)/C=C/[C@H]1[C@H](O)CC(=O)[C@@H]1C/C=C\CCCC(=O)O [PGE2, prostaglandin E2]
[3]
  reduction in nociceptive threshold: significant reduction in nociceptive threshold

## CN(N=O)C(=O)N[C@@H]1[C@@H](O)[C@H](O)[C@@H](CO)O[C@@H]1O [STZ, streptozotocin sulfate]
[5]
  blood glucose level: > 300 mg/dL
[6]; [12]
  day of maximum hyperalgesic effect after drug administration: 3 days

## CC[C@]1(O)C[C@H]2CN(CCc3c([nH]c4ccccc34)[C@@](C(=O)OC)(c3cc4c(cc3OC)N(C=O)[C@H]3[C@@](O)(C(=O)OC)[C@H](OC(C)=O)[C@]5(CC)C=CCN6CC[C@]43[C@@H]65)C2)C1 [VCR, vincristine sulfate]
[6]; [12]
  day of maximum hyperalgesic effect after drug administration: 5 days

## Nc1ccn([C@H]2CC[C@@H](CO)O2)c(=O)n1 [ddC, 2′,3′-dideoxycytidine]
[6]; single dose ddC 50 mg/kg i.v., from day 1
  reduction in nociceptive threshold: significant reduction in nociceptive threshold
[6]; single i.v. injection: VCR 200 μg/kg, STZ 50 mg/kg, ddC 50 mg/kg
  persistence of hyperalgesia: over 20 days

## Ac-Asp-Met-Gin-Asp-CHO [Ac-DMQD-CHO]
[1]; [13]
  effect on ddC-induced mechanical hyperalgesia: significantly reversed mechanical hyperalgesia; also recorded: markedly attenuating ddC hyperalgesia
[2]; [13]
  effect on vincristine-induced mechanical hyperalgesia: significantly reversed mechanical hyperalgesia; also recorded: only moderately attenuated

## Cbz-VD(OMe)VAD(OMe)-CH2F [Z-VDAD-FMK]
[1]
  effect on ddC-induced mechanical hyperalgesia: significantly attenuated hyperalgesia
[2]
  effect on vincristine-induced mechanical hyperalgesia: significantly attenuated hyperalgesia

## IETD-CHO
[1]
  effect on ddC-induced mechanical hyperalgesia: significantly attenuated hyperalgesia
[2]
  effect on vincristine-induced mechanical hyperalgesia: significantly attenuated hyperalgesia

## TNFα
[3]; TNFα 100 ng i.d.
  latency to onset of hyperalgesia: approximately 5 minutes
[3]; TNFα 100 ng i.d., at 3 hours
  time course of hyperalgesia: not attenuated at 3 hours
[3]
  effect on mechanical nociceptive threshold, dose response: dose-dependent (1 ng-1 μg) decrease in mechanical nociceptive threshold

## Z-Leu-Glu(OMe)-His-Asp-(OMe)FMK [Z-LEHD-FMK.TFA]
[1]
  effect on ddC-induced mechanical hyperalgesia: significantly attenuated hyperalgesia
[2]
  effect on vincristine-induced mechanical hyperalgesia: significantly attenuated hyperalgesia

## Z-Phe-Ala-CH2F [Z-FA-FMK]
[4]; [14]
  effect on TNFα-induced hyperalgesia: not
[7]
  effect on C2-ceramide-induced hyperalgesia: not

## Z-Val-Ala-Asp(OMe)-Fluoro methyl ester [Z-VAD-FMK]
[4]; [14]
  effect on TNFα-induced hyperalgesia: markedly attenuated
[8]
  effect of inhibitor alone on mechanical nociceptive threshold: had no effect on mechanical nociceptive threshold
[1]
  effect on ddC-induced mechanical hyperalgesia: markedly attenuated; also recorded: markedly attenuating pain-related behavior
[2]
  effect on vincristine-induced mechanical hyperalgesia: markedly attenuated; also recorded: moderately attenuating pain
[9]
  effect on STZ-induced mechanical hyperalgesia: did not produce significant attenuation of hyperalgesia; also recorded: having no effect
[10]
  effect on PGE2-induced hyperalgesia: had no effect on the hyperalgesia
[11]
  effect on Epi-induced hyperalgesia: had no effect on the hyperalgesia
[7]
  effect on C2-ceramide-induced hyperalgesia: significantly less hyperalgesia
